Calls of active or inactive are those of the source. Cut-off read from the data, not from the text of the source: actives have a measured IC50 and inactives only a lower limit.

For the assay, the target named is Envelope glycoprotein gp160 (Human immunodeficiency virus 1, UniProt Q6QLK5). The experiment in a line: inhibitors of HIV fusion peptide binding, primary screen, biochemical, uHTS, fluorescence dequenching (AID 1986).
Chain of Envelope glycoprotein gp160 (Q6QLK5 whole entry, the tested form may be a part): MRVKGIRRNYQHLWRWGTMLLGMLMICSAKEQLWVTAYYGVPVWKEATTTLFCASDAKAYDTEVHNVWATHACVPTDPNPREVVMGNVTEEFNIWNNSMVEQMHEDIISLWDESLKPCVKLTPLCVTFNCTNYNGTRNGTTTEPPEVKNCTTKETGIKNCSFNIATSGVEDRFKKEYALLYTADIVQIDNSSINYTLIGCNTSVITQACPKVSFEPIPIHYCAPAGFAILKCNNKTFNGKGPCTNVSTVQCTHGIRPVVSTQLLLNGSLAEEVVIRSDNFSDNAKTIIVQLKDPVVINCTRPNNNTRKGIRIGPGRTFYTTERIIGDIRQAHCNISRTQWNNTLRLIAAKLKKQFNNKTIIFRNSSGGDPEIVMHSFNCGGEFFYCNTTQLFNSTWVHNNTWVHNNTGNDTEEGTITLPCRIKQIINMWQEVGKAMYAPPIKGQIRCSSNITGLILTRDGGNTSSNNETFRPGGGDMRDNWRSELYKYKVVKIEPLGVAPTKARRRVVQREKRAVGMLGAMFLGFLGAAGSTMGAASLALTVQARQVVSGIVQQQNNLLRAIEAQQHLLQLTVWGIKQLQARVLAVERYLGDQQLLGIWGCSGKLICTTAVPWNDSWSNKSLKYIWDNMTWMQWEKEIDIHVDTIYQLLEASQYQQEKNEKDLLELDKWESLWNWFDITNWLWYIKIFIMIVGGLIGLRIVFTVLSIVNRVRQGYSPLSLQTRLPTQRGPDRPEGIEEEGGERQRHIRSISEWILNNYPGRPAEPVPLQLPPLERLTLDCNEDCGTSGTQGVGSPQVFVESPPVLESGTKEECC
Regarding `O=C1NN(c2ccc(F)c(Cl)c2)C(=O)/C1=C\c1cccc(OC(=O)c2cccs2)c1`, the 50% inhibitory concentration (IC50) (in general, the point on the concentration scale where inhibition reaches its midpoint) is 7.72 µM (active). The result for `CSc1nc(SCC(=O)O)c2sc3nc(-c4ccccc4)c4c(c3c2n1)CCC4` reads 16.2 µM (active). The result for `O=C(O)Cn1cc(/C=c2/sc3nc4ccccc4n3c2=O)c2ccccc21` reads 68.9 µM (active).

Source of the values: ChEMBL document CHEMBL1201862, “PubChem BioAssay data set” (2004).
